According to ChEMBL document CHEMBL1921738, “A small molecule that preferentially binds the closed conformation of Hsp90” (Bioorg Med Chem Lett, 2011):
Activity calls are given as the source filed them. The calls are words filed in the database; no cut-off is given here. Side chains are listed from the residue outwards. Peptide text beside a SMILES is read from it. * marks the point of attachment. Biotin = O=C1N[C@H]2[C@H](CS[C@H]2CCCCC(=O)*)N1; PEG4 = NCCOCCOCCOCCOCCC(=O)O

Tests used:
[1] = target: T1, Heat shock protein HSP 90-beta (Homo sapiens, UniProt P08238); test: Binding affinity to human Hsp90 open state by fluorescence polarization anisotropy
[2] = target: T1, Heat shock protein HSP 90-beta; test: Binding affinity to human Hsp90 closed state by fluorescence polarization anisotropy
[3] = Binding affinity to Saccharomyces cerevisiae Hsc82 open apo state by fluorescence polarization anisotropy method
[4] = Binding affinity to Saccharomyces cerevisiae Hsc82 closed state by fluorescence polarization anisotropy method in presence of non-hydrolyzable ATP analog AMPPNP
[5] = test system: Jurkat; test: Cytotoxicity against human Jurkat T-lymphoblastoid leukemia cells after 24 to 48 hrs by MTS assay; assay type: cell-based
[6] = target: T1, Heat shock protein HSP 90-beta; test: Binding affinity to Hsp90 after 1 hrs by Western blotting

T1 sequence (P08238 whole entry): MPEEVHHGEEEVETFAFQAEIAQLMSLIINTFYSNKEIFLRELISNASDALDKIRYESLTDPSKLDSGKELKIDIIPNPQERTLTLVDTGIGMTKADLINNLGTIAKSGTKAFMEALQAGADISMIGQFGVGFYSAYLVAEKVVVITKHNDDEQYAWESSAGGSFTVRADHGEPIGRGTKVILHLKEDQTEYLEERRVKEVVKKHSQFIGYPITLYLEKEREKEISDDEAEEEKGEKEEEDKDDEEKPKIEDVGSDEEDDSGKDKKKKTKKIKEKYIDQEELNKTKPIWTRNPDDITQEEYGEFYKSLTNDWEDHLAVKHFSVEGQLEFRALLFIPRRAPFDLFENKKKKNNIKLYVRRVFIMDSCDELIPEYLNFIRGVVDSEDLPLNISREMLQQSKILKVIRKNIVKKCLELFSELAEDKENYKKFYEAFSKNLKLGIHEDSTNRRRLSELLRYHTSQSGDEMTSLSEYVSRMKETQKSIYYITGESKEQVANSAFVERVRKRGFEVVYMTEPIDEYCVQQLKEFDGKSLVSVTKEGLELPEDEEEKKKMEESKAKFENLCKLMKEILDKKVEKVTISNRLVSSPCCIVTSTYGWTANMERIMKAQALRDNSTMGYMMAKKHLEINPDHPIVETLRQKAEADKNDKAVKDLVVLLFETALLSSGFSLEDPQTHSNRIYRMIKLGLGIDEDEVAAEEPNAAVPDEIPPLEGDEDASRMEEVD

SMILES | Kd [3] [µM] | Kd [4] [µM] | also measured
CC(C)C[C@@H]1NC(=O)[C@H](CCCCNC(=O)OCc2ccccc2)NC(=O)[C@H](Cc2ccccc2)NC(=O)[C@@H](Cc2ccccc2)N(C)C(=O)[C@H](C(C)C)NC1=O | – | – | Activity [1]: Active; Activity [2]: Active
CC(C)C[C@@H]1NC(=O)[C@H](CCCCNC(=O)OCc2ccccc2)NC(=O)[C@H](CCCCNC(=O)c2ccc(C(=O)O)c(-c3c4ccc(=O)cc-4oc4cc(O)ccc34)c2)NC(=O)[C@@H](Cc2ccccc2)N(C)C(=O)[C@H](C(C)C)NC1=O | 180 | 120 | –
CC(C)C[C@@H]1NC(=O)[C@H](Cc2ccccc2)NC(=O)[C@H](CC(C)C)NC(=O)[C@H](C(C)C)NC(=O)[C@H](CC(C)C)NC1=O (cyclo(FLLVL)) | – | – | Kd [2]: 100 µM
CC(C)C[C@@H]1NC(=O)[C@H](CCCCNC(=O)OCc2ccccc2)NC(=O)[C@H](Cc2ccccc2)NC(=O)[C@@H](Cc2ccccc2)N(C)C(=O)[C@H](CCCCNC(=O)c2ccc(C(=O)O)c(-c3c4ccc(=O)cc-4oc4cc(O)ccc34)c2)NC1=O | 57 | 27 | –
CC(C)[C@@H]1NC(=O)[C@H](CCCCNC(=O)c2ccc(C(=O)O)c(-c3c4ccc(=O)cc-4oc4cc(O)ccc34)c2)NC(=O)[C@H](CCCCNC(=O)OCc2ccccc2)NC(=O)[C@H](Cc2ccccc2)NC(=O)[C@@H](Cc2ccccc2)N(C)C1=O | 103 | 55 | –
CO[C@@H]1[C@@H](OC(N)=O)[C@@H](O)[C@H](Oc2ccc3c(O)c(NC(=O)c4ccc(O)c(CC=C(C)C)c4)c(=O)oc3c2C)OC1(C)C [NOVOBIOCIN] | – | – | Activity [5]: 700 µM
CC(C)C[C@@H]1NC(=O)[C@H](Cc2ccccc2)NC(=O)[C@H](CC(C)C)NC(=O)[C@H](C(C)C)NC(=O)[C@H](CCCCNC(=O)CCOCCOCCOCCOCCNC(=O)CCCC[C@@H]2SC[C@@H]3NC(=O)N[C@@H]32)NC1=O (cyclo(FLK([PEG4-Biotin])VL)) | – | – | Kd [6]: 20 µM
